Values of other authors in US11071781B2, “Combination of local and systemic immunomodulative therapies for enhanced treatment of cancer” (Provectus Pharmatech, Inc., priority 2011, dated 2021).
“And” between values parts separate entries of the source, which are not always exact repeats. Identical values can stand only once. Like-named read-outs stand apart in the source and are kept apart here.

Assays:
melanoma = conditions: for toxicity and side effects: patients
cancer cells = conditions: previous work, WO 02/05812
[1] = intralesional therapy, melanoma patients

In the case of `N.N.[Cl][Pt][Cl]` [cisplatin, reference compound], the “objective response rate (ORR)” value (melanoma; [1]) is given as 38% and 53%, the ORR (melanoma; lesions having a median diameter of 3.0 cm) is given as 44% and the ORR (melanoma; lesions with a median diameter of 0.6 cm) is given as 53%.

In the case of `O=C1OC2(c3cc(I)c(O)c(I)c3Oc3c2cc(I)c(O)c3I)c2c(Cl)c(Cl)c(Cl)c(Cl)c21` [rose bengal, 4,5,6,7-tetrachloro-2′,4′,5′,7′-tetraiodofluorescein], the “uptake into cancer cells versus normal cells” value (cancer cells) is listed as “preferential uptake into cancer cells but is essentially excluded from normal cells”.

For IFN-α, the “complete response (CR)” value (melanoma; [1]) is given as 31%, the “objective response rate (ORR)” value (melanoma; [1]) is given as 45% and the “partial response (PR)” value (melanoma; [1]) is given as 14%. The “toxicity and side effects” value (melanoma; intralesional therapy) was “significant toxicity and side effects”.

For bleomycin [reference compound], the “efficacy (in words)” value (melanoma; single electrochemotherapy treatment, intralesional) is given as “Substantial efficacy”.

B1: IFN-γ: interferon-gamma, non-specific cytokine (protein, UniProt P01579 24-161, looked up)
Interferon gamma: QDPYVKEAENLKKYFNAGHSDVADNGTLFLGILKNWKEESDRKIMQSQIVSFYFKLFKNFKDDQSIQKSVETIKEDMNVKFFNSNKKKRDDFEKLTNYSVTDLNVQRKAIHELIQVMAELSPAAKTGKRKRSQMLFRG
In the case of B1, the “response to IL therapy (in words)” value (melanoma; intralesional interferon) is listed as “either no result or transient response” and the “toxicity and side effects” value (melanoma; intralesional therapy) is listed as “significant toxicity and side effects”.
